Experimental data reported in ChEMBL document CHEMBL1649088, “Structural optimization of azadipeptide nitriles strongly increases association rates and allows the development of selective cathepsin inhibitors” (J Med Chem, 2011).
Active and inactive are the calls of the source. The rule behind the calls is not given here.

Tests used:
[1] = target: Cathepsin S (Homo sapiens, UniProt P25774); test: Inhibition of human cathepsin S after 30 mins by spectrophotometric assay
[2] = target: Cathepsin B (Homo sapiens, UniProt P07858); test: Inhibition of human recombinant cathepsin B after 30 mins by spectrophotometric assay
[3] = target: T1, Cathepsin K (Homo sapiens, UniProt P43235); test: Inhibition of human recombinant cathepsin K after 30 mins by spectrophotometric assay
T1 sequence (P43235 whole entry): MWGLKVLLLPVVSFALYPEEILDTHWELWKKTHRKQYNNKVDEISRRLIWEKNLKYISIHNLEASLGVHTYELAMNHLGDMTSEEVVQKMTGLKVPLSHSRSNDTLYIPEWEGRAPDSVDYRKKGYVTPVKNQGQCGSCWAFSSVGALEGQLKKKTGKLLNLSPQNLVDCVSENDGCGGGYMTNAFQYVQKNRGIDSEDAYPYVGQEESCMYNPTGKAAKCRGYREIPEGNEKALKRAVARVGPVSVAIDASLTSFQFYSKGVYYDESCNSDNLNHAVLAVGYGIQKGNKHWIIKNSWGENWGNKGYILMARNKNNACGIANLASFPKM

[4] = target: Procathepsin L (Homo sapiens, UniProt P07711); test: Inhibition of human recombinant cathepsin L after 30 mins by spectrophotometric assay
[5] = species: Homo sapiens; test: Selectivity ratio, ratio of Ki for human recombinant cathepsin L to Ki for human recombinant cathepsin K
[6] = species: Homo sapiens; test: Selectivity ratio, ratio of Ki for human recombinant cathepsin B to Ki for human recombinant cathepsin K
[7] = target: T2, Cathepsin K (Homo sapiens) (UniProt P43235); test: Reversible inhibition of human recombinant cathepsin K at 300 nM preincubated for 30 mins by spectrophotometric assay
T2 sequence (whole entry): T1 sequence (P43235 whole entry)

[8] = species: Homo sapiens; test: Selectivity ratio, ratio of Ki for human cathepsin S to Ki for human recombinant cathepsin K

Chain of Cathepsin S (P25774 whole entry): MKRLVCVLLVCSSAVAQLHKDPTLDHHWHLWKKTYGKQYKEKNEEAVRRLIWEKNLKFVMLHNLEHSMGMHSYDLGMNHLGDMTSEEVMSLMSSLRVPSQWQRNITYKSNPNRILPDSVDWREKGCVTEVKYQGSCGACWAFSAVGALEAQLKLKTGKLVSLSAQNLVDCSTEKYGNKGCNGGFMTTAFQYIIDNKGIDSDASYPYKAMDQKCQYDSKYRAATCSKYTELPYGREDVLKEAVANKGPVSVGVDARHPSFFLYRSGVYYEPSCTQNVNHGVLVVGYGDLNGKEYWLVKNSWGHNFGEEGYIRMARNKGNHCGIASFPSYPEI
Chain of Procathepsin L (P07711 whole entry): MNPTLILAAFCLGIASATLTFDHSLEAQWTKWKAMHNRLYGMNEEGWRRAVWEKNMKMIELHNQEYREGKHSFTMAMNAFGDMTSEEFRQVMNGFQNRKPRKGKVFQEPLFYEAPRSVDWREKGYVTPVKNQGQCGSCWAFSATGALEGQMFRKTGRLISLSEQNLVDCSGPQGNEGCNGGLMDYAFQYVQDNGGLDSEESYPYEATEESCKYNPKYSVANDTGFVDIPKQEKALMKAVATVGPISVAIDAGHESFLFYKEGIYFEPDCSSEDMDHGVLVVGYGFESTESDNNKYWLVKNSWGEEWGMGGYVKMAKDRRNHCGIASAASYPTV

SMILES	Ki [1] [nM]	Ki [2] [nM]	Ki [3] [nM]	Ki [4] [nM]	Ratio Ki [5]	Ratio Ki [6]	Activity [7]	Ratio Ki [8]
CN(C#N)N(C)C(=O)CNC(=O)OCc1ccccc1	800	840	260	860				
CC(C)C[C@H](NC(=O)NCc1ccccc1)C(=O)N(C)N(C)C#N	0.2	0.65	0.011	0.39				
CC(C)C[C@H](NC(=O)NCc1ccc(-c2noc(-c3cccs3)n2)cc1)C(=O)N(C)N(C)C#N	0.16	1.3	0.072	1.1				
CC(C)C[C@H](NC(=O)c1ccc(-c2noc(-c3cccs3)n2)cc1)C(=O)N(C)N(C)C#N	0.15	0.36	0.032	0.22				
CN(C#N)N(C)C(=O)[C@H](CC1CCCCC1)NC(=O)OCc1ccccc1	0.2	0.48	0.071	0.4				
CC(C)C[C@@H](C(=O)NCC#N)N(C)C(=O)c1ccc(-c2noc(-c3cccs3)n2)cc1	> 22000	> 22000	270	> 22000				
CC(C)C[C@H](NC(=O)OCc1ccccc1)C(=O)N(C)N(C)C#N	0.33	0.43	0.064	0.9				
C[C@H](NC(=O)OCc1ccccc1)C(=O)N(C)N(C)C#N	9.1	55	33	480				
CN(C#N)N(C)C(=O)[C@H](Cc1ccc(O)cc1)NC(=O)OCc1ccccc1	0.86	0.38	0.16	0.36				
Cc1nc(-c2ccc(CNC(=O)N[C@@H](CC(C)C)C(=O)N(C)N(C)C#N)cc2)no1	0.17	2.8	0.11	1.4				
CC(C)C[C@H](NC(=O)Nc1ccccc1)C(=O)N(C)N(C)C#N	0.16	1.3	0.017	0.045				
CC(C)[C@H](NC(=O)OCc1ccccc1)C(=O)N(C)N(C)C#N	1.5	4.3	0.87	1.5				
CC(C)C[C@H](NC(=O)Nc1ccc(-c2noc(-c3cccs3)n2)cc1)C(=O)NCC#N	180	> 22000	34	4700				
CC(C)C[C@H](NC(=O)Nc1ccc(-c2noc(-c3cccs3)n2)cc1)C(=O)N(C)N(C)C#N	0.32	2.4	0.022	4.4				
CC(C)C[C@H](NC(=O)c1ccc(-c2noc(-c3cccs3)n2)cc1)C(=O)NCC#N	140	> 22000	2.9	940	300			
CC[C@H](C)[C@H](NC(=O)OCc1ccccc1)C(=O)N(C)N(C)C#N	0.83	0.88	0.46	2.6				
CC(C)C[C@@H](C(=O)N(C)N(C)C#N)N(C)C(=O)c1ccc(-c2noc(-c3cccs3)n2)cc1	140	510	0.63	2700	4300	800	Active	200
Cc1nc(-c2ccc(NC(=O)N[C@@H](CC(C)C)C(=O)N(C)N(C)C#N)cc2)no1	0.19	2.4	0.045	2				
CN(C#N)N(C)C(=O)[C@H](Cc1ccccc1)NC(=O)OCc1ccccc1	0.51	0.68	0.14	0.16				
